From ChEMBL document CHEMBL1933046, “Synthesis and antibacterial activity of a novel series of acylides active against community acquired respiratory pathogens” (2012)
Converted amounts (≈) assume the structure as drawn. The source made the active and inactive calls. The calls are words filed in the database; no cut-off is given here.

Columns and labels:
[1] = test system: Streptococcus pneumoniae; assay: Antibacterial activity against Streptococcus pneumoniae 994 expressing mef gene by NCCLS method; type: functional
[2] = test system: Streptococcus pyogenes; assay: Antibacterial activity against Streptococcus pyogenes 19615 by NCCLS method; type: functional
[3] = test system: Haemophilus influenzae; assay: Antibacterial activity against Haemophilus influenzae 38 by NCCLS method; type: functional
[4] = test system: Moraxella catarrhalis; assay: Antibacterial activity against Moraxella catarrhalis 8176 by NCCLS method; type: functional
[5] = test system: Streptococcus pneumoniae; assay: Antibacterial activity against telethromycin-resistant Streptococcus pneumoniae 757 expressing erm gene by NCCLS method; type: functional
[6] = test system: Streptococcus pneumoniae; assay: Antibacterial activity against telethromycin-resistant Streptococcus pneumoniae 162 expressing erm gene by NCCLS method; type: functional
[7] = test system: Streptococcus pneumoniae; assay: Antibacterial activity against telethromycin-resistant Streptococcus pneumoniae 2840 expressing erm gene by NCCLS method; type: functional
[8] = test system: Streptococcus pneumoniae; assay: Antibacterial activity against telethromycin-resistant Streptococcus pneumoniae 3489 expressing erm gene by NCCLS method; type: functional
[9] = test system: Streptococcus pneumoniae; assay: Antibacterial activity against telethromycin-resistant Streptococcus pneumoniae B739 expressing erm gene by NCCLS method; type: functional
[10] = test system: Streptococcus pneumoniae; assay: Antibacterial activity against telethromycin-resistant Streptococcus pneumoniae 3271 expressing erm gene by NCCLS method; type: functional
[11] = test system: Streptococcus pneumoniae; assay: Antibacterial activity against telethromycin-resistant Streptococcus pneumoniae 217 expressing erm gene by NCCLS method; type: functional
[12] = test system: Streptococcus pneumoniae; assay: Antibacterial activity against telethromycin-resistant Streptococcus pneumoniae 3488 expressing erm gene by NCCLS method; type: functional
[13] = test system: Streptococcus pneumoniae; assay: Antibacterial activity against telethromycin-resistant Streptococcus pneumoniae AB14 expressing erm gene by NCCLS method; type: functional
[14] = test system: Streptococcus pneumoniae; assay: Antibacterial activity against telethromycin-resistant Streptococcus pneumoniae 5099 expressing erm gene by NCCLS method; type: functional
[15] = test system: Streptococcus pneumoniae; assay: Antibacterial activity against telethromycin-resistant Streptococcus pneumoniae 3390 expressing erm gene by NCCLS method; type: functional
[16] = test system: Streptococcus pneumoniae; assay: Antibacterial activity against telethromycin-resistant Streptococcus pneumoniae 5051 expressing erm gene by NCCLS method; type: functional
[17] = test system: Streptococcus pneumoniae; assay: Antibacterial activity against Streptococcus pneumoniae 6303 by NCCLS method; type: functional
[18] = test system: Streptococcus pneumoniae; assay: Antibacterial activity against Streptococcus pneumoniae 49619 by NCCLS method; type: functional
[19] = test system: Streptococcus pneumoniae; assay: Antibacterial activity against Streptococcus pneumoniae 3579 expressing erm gene by NCCLS method; type: functional
[20] = test system: Streptococcus pneumoniae; assay: Antibacterial activity against Streptococcus pneumoniae 3579 expressing erm gene infected in mouse systemic infection model; type: functional, organism-based
[21] = test system: Streptococcus pneumoniae; assay: Antibacterial activity against Streptococcus pneumoniae by NCCLS method; type: functional

Structure (SMILES)	MIC [1] [µg/mL]	MIC [2] [µg/mL]	MIC [3] [µg/mL]	MIC [4] [µg/mL]	MIC [5] [µg/mL]	MIC [6] [µg/mL]	MIC [7] [µg/mL]	MIC [8] [µg/mL]	MIC [9] [µg/mL]	MIC [10] [µg/mL]	MIC [11] [µg/mL]	MIC [12] [µg/mL]	MIC [13] [µg/mL]	MIC [14] [µg/mL]	MIC [15] [µg/mL]	MIC [16] [µg/mL]	MIC [17] [µg/mL]	MIC [18] [µg/mL]	MIC [19] [µg/mL]	Activity [20]	also measured
CC[C@H]1OC(=O)[C@H](C)C(=O)[C@H](C)[C@@H](O[C@@H]2O[C@H](C)C[C@H](N(C)C)[C@H]2O)[C@](C)(OC)C[C@@H](C)C(=O)[C@H](C)[C@H]2N(CCCCn3cnc(-c4cccnc4)c3)C(=O)O[C@]12C [TELITHROMYCIN]	0.25 (≈ 0.308 µM)	0.03 (≈ 0.0369 µM)	1 (≈ 1.23 µM)	0.25 (≈ 0.308 µM)	32 (≈ 39.4 µM)	64 (≈ 78.8 µM)	64 (≈ 78.8 µM)	64 (≈ 78.8 µM)	64 (≈ 78.8 µM)	64 (≈ 78.8 µM)	4 (≈ 4.93 µM)	8 (≈ 9.85 µM)	8 (≈ 9.85 µM)	8 (≈ 9.85 µM)	8 (≈ 9.85 µM)	4 (≈ 4.93 µM)	0.03 (≈ 0.0369 µM)	0.06 (≈ 0.0739 µM)	0.25 (≈ 0.308 µM)		
C=CCN(C)[C@H]1C[C@@H](C)O[C@@H](O[C@@H]2[C@@H](C)[C@H](OC(=O)Cc3ccccn3)[C@@H](C)C(=O)O[C@H](CC)[C@@]3(C)OC(=O)N(CCCCn4cnc5ncccc54)[C@@H]3[C@@H](C)C(=O)[C@H](C)C[C@@]2(C)OC)[C@@H]1O	0.5 (≈ 0.536 µM)	0.06 (≈ 0.0643 µM)	< 0.06	0.25 (≈ 0.268 µM)	0.25 (≈ 0.268 µM)	1 (≈ 1.07 µM)	0.5 (≈ 0.536 µM)	0.5 (≈ 0.536 µM)	0.5 (≈ 0.536 µM)	0.5 (≈ 0.536 µM)	0.125 (≈ 0.134 µM)	0.125 (≈ 0.134 µM)	0.06 (≈ 0.0643 µM)	0.06 (≈ 0.0643 µM)	0.125 (≈ 0.134 µM)	0.125 (≈ 0.134 µM)	0.06 (≈ 0.0643 µM)	0.06 (≈ 0.0643 µM)	0.5 (≈ 0.536 µM)	Active	
C=CCN(C)[C@H]1C[C@@H](C)O[C@@H](O[C@@H]2[C@@H](C)[C@H](OC(=O)Cc3ccccn3)[C@@H](C)C(=O)O[C@H](CC)[C@@]3(C)OC(=O)N(CCCCn4ccc5cccnc54)[C@@H]3[C@@H](C)C(=O)[C@H](C)C[C@@]2(C)OC)[C@@H]1O	0.25 (≈ 0.268 µM)	0.03 (≈ 0.0322 µM)	< 0.06	0.25 (≈ 0.268 µM)	1 (≈ 1.07 µM)	4 (≈ 4.29 µM)	2 (≈ 2.15 µM)	2 (≈ 2.15 µM)	2 (≈ 2.15 µM)	4 (≈ 4.29 µM)	1 (≈ 1.07 µM)	0.5 (≈ 0.536 µM)	0.25 (≈ 0.268 µM)	0.25 (≈ 0.268 µM)	0.25 (≈ 0.268 µM)	0.5 (≈ 0.536 µM)	0.03 (≈ 0.0322 µM)	0.03 (≈ 0.0322 µM)	1 (≈ 1.07 µM)	Active	
CC[C@H]1OC(=O)[C@H](C)[C@@H](O[C@H]2C[C@@](C)(OC)[C@@H](O)[C@H](C)O2)[C@H](C)[C@@H](O[C@@H]2O[C@H](C)C[C@H](N(C)C)[C@H]2O)[C@](C)(O)C[C@@H](C)C(=O)[C@H](C)[C@@H](O)[C@]1(C)O [ERYTHROMYCIN]	0.5 (≈ 0.681 µM)	0.015 (≈ 0.0204 µM)	> 16	8 (≈ 10.9 µM)													0.25 (≈ 0.341 µM)	0.125 (≈ 0.17 µM)	8 (≈ 10.9 µM)		MIC [21]: 0.25 µg/mL (≈ 0.341 µM)
C=CCN(C)[C@H]1C[C@@H](C)O[C@@H](O[C@@H]2[C@@H](C)[C@H](OC(=O)Cc3ccccn3)[C@@H](C)C(=O)O[C@H](CC)[C@@]3(C)OC(=O)N(CCCCn4cnc(-c5ccnc(N)c5)c4)[C@@H]3[C@@H](C)C(=O)[C@H](C)C[C@@]2(C)OC)[C@@H]1O	0.06 (≈ 0.0616 µM)	2 (≈ 2.05 µM)		0.06 (≈ 0.0616 µM)	0.125 (≈ 0.128 µM)	1 (≈ 1.03 µM)	0.5 (≈ 0.513 µM)	1 (≈ 1.03 µM)	1 (≈ 1.03 µM)	2 (≈ 2.05 µM)	0.125 (≈ 0.128 µM)	0.125 (≈ 0.128 µM)	0.03 (≈ 0.0308 µM)	0.06 (≈ 0.0616 µM)	0.125 (≈ 0.128 µM)	0.06 (≈ 0.0616 µM)	0.03 (≈ 0.0308 µM)	0.03 (≈ 0.0308 µM)	0.125 (≈ 0.128 µM)	Active	
C=CCN(C)[C@H]1C[C@@H](C)O[C@@H](O[C@@H]2[C@@H](C)[C@H](OC(=O)Cc3ccccn3)[C@@H](C)C(=O)O[C@H](CC)[C@@]3(C)OC(=O)N(CCCCn4cncc4-c4ccco4)[C@@H]3[C@@H](C)C(=O)[C@H](C)C[C@@]2(C)OC)[C@@H]1O	0.06 (≈ 0.0633 µM)	0.015 (≈ 0.0158 µM)		0.125 (≈ 0.132 µM)	0.5 (≈ 0.527 µM)	2 (≈ 2.11 µM)	1 (≈ 1.05 µM)	1 (≈ 1.05 µM)	1 (≈ 1.05 µM)	1 (≈ 1.05 µM)	0.5 (≈ 0.527 µM)	0.25 (≈ 0.264 µM)	0.125 (≈ 0.132 µM)	0.125 (≈ 0.132 µM)	0.25 (≈ 0.264 µM)	0.25 (≈ 0.264 µM)	0.008 (≈ 0.00844 µM)	0.015 (≈ 0.0158 µM)	0.25 (≈ 0.264 µM)	Active	
CC[C@H]1OC(=O)[C@H](C)[C@@H](OC(=O)Cc2ccccn2)[C@H](C)[C@@H](O[C@@H]2O[C@H](C)C[C@H](N(C)CC)[C@H]2O)[C@](C)(OC)C[C@@H](C)C(=O)[C@H](C)[C@H]2N(CCCCn3cnc(-c4ccc(N)nc4)c3)C(=O)O[C@]12C	0.125 (≈ 0.13 µM)	0.06 (≈ 0.0624 µM)	0.125 (≈ 0.13 µM)	0.25 (≈ 0.26 µM)													0.06 (≈ 0.0624 µM)	0.06 (≈ 0.0624 µM)	0.25 (≈ 0.26 µM)		
